Measurements from patent publication US9926302B2, “Heteroaryl substituted heterocyclyl sulfones” (priority 2014, dated 2018).

molecular target: T1, Human CaV2.2 channels (Homo sapiens, UniProt Q00975); assay: Fluorescence assay for CaV2.2 channels using potassium depolarization to induce channel opening (FLIPR, Fluo 4); type: cell-based; settings: 3 μM test compound; alternative assay buffer 30 mM KCl (inactivated channel state); HEK293 cells stably expressing human CaV2.2
T1 construct: expressed in transfected cells
T1 sequence (P54289 947-1103): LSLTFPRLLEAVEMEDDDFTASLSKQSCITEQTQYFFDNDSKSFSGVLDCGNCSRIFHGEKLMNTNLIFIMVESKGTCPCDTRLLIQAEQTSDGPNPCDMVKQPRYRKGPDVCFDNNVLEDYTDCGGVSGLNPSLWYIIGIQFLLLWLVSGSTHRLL
T1 sequence (P54289 25-946): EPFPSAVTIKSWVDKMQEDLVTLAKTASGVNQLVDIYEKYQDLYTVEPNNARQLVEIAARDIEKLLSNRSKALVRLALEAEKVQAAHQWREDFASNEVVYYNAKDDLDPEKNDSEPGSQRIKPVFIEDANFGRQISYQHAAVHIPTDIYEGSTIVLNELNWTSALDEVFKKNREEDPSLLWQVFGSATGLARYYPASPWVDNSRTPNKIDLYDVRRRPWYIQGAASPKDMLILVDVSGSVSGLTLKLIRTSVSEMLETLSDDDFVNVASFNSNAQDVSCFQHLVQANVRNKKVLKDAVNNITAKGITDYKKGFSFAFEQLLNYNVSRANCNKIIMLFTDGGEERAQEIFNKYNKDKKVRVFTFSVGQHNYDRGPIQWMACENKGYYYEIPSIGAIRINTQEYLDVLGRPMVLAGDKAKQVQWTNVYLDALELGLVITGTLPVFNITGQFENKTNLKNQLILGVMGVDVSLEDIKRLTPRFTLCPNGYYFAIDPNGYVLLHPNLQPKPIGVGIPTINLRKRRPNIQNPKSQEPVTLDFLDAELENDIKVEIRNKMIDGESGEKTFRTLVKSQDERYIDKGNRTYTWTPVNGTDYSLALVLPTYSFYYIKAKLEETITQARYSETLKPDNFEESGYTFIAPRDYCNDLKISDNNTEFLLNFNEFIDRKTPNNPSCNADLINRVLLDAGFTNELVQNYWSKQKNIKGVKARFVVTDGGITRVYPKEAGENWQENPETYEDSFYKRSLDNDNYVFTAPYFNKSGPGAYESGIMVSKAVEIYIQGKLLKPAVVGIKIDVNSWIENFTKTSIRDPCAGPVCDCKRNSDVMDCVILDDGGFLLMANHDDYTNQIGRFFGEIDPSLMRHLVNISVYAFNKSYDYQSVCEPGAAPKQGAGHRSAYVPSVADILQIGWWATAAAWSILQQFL
T1 sequence (P54284 whole entry, further chain): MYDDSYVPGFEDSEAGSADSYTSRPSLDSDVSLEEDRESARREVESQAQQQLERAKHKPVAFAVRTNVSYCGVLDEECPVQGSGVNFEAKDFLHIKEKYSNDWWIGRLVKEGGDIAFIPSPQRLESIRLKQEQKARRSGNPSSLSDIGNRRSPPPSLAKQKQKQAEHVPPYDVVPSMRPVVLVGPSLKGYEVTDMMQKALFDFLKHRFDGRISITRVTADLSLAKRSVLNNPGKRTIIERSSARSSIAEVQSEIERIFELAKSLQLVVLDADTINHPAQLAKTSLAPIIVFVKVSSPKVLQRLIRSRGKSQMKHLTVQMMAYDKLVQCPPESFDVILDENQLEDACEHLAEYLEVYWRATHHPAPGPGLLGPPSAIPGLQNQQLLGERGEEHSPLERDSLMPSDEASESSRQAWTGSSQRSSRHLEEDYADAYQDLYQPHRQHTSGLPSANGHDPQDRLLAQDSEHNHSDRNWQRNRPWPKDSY
T1 sequence (Q00975 whole entry): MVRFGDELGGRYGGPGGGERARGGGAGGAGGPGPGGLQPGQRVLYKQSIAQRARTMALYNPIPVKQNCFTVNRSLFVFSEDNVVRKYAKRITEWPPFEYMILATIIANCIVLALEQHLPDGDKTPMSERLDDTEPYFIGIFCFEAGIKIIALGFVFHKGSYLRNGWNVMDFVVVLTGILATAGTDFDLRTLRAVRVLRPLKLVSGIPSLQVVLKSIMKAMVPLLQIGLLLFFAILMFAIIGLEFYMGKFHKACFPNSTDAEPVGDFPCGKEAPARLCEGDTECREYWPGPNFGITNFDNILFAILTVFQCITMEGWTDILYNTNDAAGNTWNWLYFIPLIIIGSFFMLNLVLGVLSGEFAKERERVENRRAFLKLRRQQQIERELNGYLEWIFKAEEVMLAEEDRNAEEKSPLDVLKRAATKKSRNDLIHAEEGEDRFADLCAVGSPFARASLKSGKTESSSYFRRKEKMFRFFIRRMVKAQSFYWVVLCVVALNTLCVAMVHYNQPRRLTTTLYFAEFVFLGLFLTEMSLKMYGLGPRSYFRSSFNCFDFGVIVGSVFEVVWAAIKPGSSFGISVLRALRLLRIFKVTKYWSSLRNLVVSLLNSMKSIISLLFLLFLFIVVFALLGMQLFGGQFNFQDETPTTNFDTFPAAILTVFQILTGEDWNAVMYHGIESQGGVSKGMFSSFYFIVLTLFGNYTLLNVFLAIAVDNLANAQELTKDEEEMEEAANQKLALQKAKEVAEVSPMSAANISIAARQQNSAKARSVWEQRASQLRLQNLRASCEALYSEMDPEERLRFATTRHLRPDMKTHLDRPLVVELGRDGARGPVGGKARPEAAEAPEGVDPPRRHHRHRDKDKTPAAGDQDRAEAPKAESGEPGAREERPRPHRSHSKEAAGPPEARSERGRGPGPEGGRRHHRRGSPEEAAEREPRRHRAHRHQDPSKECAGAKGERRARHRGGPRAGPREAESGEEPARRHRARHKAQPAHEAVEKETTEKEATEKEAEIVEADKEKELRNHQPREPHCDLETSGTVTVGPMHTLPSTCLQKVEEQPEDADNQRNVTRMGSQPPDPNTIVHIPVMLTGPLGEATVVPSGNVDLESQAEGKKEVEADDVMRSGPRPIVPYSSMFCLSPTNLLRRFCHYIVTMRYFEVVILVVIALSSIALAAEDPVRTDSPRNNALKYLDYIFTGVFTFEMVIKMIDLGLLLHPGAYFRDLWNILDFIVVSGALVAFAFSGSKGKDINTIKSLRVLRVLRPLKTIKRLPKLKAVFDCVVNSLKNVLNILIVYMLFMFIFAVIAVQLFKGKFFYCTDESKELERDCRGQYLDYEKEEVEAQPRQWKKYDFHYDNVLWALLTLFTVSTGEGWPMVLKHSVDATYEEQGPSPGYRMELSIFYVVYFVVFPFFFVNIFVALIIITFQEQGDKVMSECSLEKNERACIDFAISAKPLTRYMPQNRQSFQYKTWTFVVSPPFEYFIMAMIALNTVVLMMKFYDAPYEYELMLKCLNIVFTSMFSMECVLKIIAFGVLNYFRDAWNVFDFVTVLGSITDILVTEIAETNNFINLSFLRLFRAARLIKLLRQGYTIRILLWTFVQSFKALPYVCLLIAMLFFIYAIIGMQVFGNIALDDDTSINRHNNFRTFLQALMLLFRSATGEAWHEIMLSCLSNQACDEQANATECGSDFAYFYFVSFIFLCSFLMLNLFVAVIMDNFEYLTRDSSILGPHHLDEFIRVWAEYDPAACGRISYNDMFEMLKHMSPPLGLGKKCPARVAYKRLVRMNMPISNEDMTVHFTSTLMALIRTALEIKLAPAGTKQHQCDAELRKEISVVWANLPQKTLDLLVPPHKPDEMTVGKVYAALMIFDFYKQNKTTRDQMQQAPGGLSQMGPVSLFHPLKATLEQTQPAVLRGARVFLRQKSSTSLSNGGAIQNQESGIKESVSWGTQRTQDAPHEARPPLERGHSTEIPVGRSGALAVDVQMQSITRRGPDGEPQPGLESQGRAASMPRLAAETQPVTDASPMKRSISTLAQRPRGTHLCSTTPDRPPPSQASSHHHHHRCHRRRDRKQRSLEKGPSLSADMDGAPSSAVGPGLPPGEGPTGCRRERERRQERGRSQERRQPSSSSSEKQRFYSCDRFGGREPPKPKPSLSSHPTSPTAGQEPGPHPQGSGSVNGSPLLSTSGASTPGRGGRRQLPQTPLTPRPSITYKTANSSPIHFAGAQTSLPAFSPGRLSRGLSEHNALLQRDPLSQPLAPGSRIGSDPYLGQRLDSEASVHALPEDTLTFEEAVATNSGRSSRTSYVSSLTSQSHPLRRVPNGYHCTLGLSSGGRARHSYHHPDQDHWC
Outline: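 HEK293 cells stably co-expressing CaV2.2 with alpha2-delta and beta subunits plus Kir2.3, loaded with 2 μM Fluo 4 and pre-incubated 15 min at 25° C with compound in 1 mM or 30 mM KCl buffer (pH 7.4; latter promotes inactivated state). Depolarized by KCl addition; peak fluorescence amplitude normalized to baseline gives inhibition.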

For `C[S+]([O-])c1cc(C(F)(F)F)cnc1C1CC(C)(S(=O)(=O)c2cccc(C(F)(F)F)c2)CCO1` (centres unmarked) [SC-230, 3-(Methylsulfinyl)-2-[4-methyl-4-[[3-(trifluoromethyl)phenyl]sulfonyl]-tetrahydro-pyran-2-yl]-5-(trifluoromethyl)-pyridine], which “Activity Category: %-Inhib (CaV2.2) @3 μM @30 mM KCl” value (“Activity Category: %-Inhib” for short) is on record?
Its value is “B (%-Inhibition >75% up to ≤95%)”.

With `CC1(S(=O)(=O)c2cccc(C(F)(F)F)c2)CCOC(COc2ccc(C3CC3)nc2)C1` (single isomer, unassigned) [SC-117, 2-Cyclopropyl-5-[[4-methyl-4-[[3-(trifluoromethyl)phenyl]sulfonyl]-tetrahydro-pyran-2-yl]-methoxy]-pyridine] as the compound, how does the “Activity Category: %-Inhib” value read?
The value was “B (%-Inhibition >75% up to ≤95%)”.

With `CC(C)c1nnc(C2CC(C)(S(=O)(=O)c3cccc(C(F)(F)F)c3)CCO2)o1` (single isomer, unassigned) [SC-126, 2-Isopropyl-5-[4-methyl-4-[[3-(trifluoromethyl)phenyl]sulfonyl]-tetrahydro-pyran-2-yl]-[1,3,4]oxadiazole] as the compound, how does the “Activity Category: %-Inhib” value read?
Its value is “B (%-Inhibition >75% up to ≤95%)”.

For `CC1(S(=O)(=O)c2cccc(C(F)(F)F)c2)CCOC(COc2cnc(C3CC3)cn2)C1` (single isomer, unassigned) [SC-133, 2-Cyclopropyl-5-[[4-methyl-4-[[3-(trifluoromethyl)phenyl]sulfonyl]-tetrahydro-pyran-2-yl]-methoxy]-pyrazine], which “Activity Category: %-Inhib” value is on record?
Its value is “A (%-Inhibition >95%)”.

For `CC1(S(=O)(=O)c2cccc(C(F)(F)F)c2)CCOC(c2nnc(C(F)F)o2)C1` (single isomer, unassigned) [SC-124, 2-(Difluoro-methyl)-5-[4-methyl-4-[[3-(trifluoromethyl)phenyl]sulfonyl]-tetrahydro-pyran-2-yl]-[1,3,4]oxadiazole], which “Activity Category: %-Inhib” value is on record?
The value was “C (%-Inhibition >40% up to ≤75%)”.

For `CCC1(S(=O)(=O)c2cccc(C(F)(F)F)c2)CCOC(c2ccc(C(F)(F)F)cn2)C1` (centres unmarked) [SC-107, 2-[4-Ethyl-4-[[3-(trifluoromethyl)phenyl]sulfonyl]-tetrahydro-pyran-2-yl]-5-(trifluoromethyl)-pyridine], which “Activity Category: %-Inhib” value is on record?
The value was “A (%-Inhibition >95%)”.

How did the “Activity Category: %-Inhib” value turn out when `CC1(S(=O)(=O)c2cccc(C(F)(F)F)c2)CCOC(c2nnc(C(F)(F)F)o2)C1` (single isomer, unassigned) [SC-121, 2-[4-Methyl-4-[[3-(trifluoromethyl)phenyl]sulfonyl]-tetrahydro-pyran-2-yl]-5-(trifluoromethyl)-[1,3,4]oxadiazole] was run?
Its value is “C (%-Inhibition >40% up to ≤75%)”.

For `CC1(S(=O)(=O)c2cccc(C(F)(F)F)c2)CCOC(c2cnc(C3CC3)cn2)C1` (centres unmarked) [SC-329, 2-Cyclopropyl-5-[4-methyl-4-[[3-(trifluoromethyl)phenyl]sulfonyl]-tetrahydro-pyran-2-yl]-pyrazine], which “Activity Category: %-Inhib” value is on record?
Its value is “A (%-Inhibition >95%)”.

same assay, conditions: HEK293, 3 μM test compound; alternative assay buffer 30 mM KCl (inactivated channel state); HEK293 cells stably expressing human CaV2.2; read-out: Activity Category: %-Inhib (CaV2.2) @3 μM @30 mM KCl

`CCC1(S(=O)(=O)c2cccc(C(F)(F)F)c2)CCOC(c2nc(C3CC3)no2)C1` (centres unmarked) [SC-202, 3-Cyclopropyl-5-[4-ethyl-4-[[3-(trifluoromethyl)phenyl]sulfonyl]-tetrahydro-pyran-2-yl]-[1,2,4]oxadiazole] was tested. Which inhibition at 3 µM did it give?
Its inhibition at 3 µM is 75 to 95%.

How did the inhibition at 3 µM turn out when `CC1(S(=O)(=O)c2cccc(C(F)(F)F)c2)CCOC(c2ncc(S(C)(=O)=O)cc2F)C1` (single isomer, unassigned) [SC-119, 3-Fluoro-5-methylsulfonyl-2-[4-methyl-4-[[3-(trifluoromethyl)phenyl]sulfonyl]-tetrahydro-pyran-2-yl]-pyridine] was run?
Its inhibition at 3 µM is 75 to 95%.

`Cc1cccc(C2CC(S(=O)(=O)c3cccc(C(F)(F)F)c3)CCO2)n1` (racemic) [SC-341, 2-methyl-6-[4-[[3-(trifluoromethyl)phenyl]sulfonyl]-tetrahydro-pyran-2-yl]-pyridine] was tested. Which inhibition at 3 µM did it give?
The inhibition at 3 µM was 40 to 75%.

How did the inhibition at 3 µM turn out when `CCC1(S(=O)(=O)c2cccc(C(F)(F)F)c2)CCOC(c2nnc(C3CC3)o2)C1` (centres unmarked) [SC-206, 2-Cyclopropyl-5-[4-ethyl-4-[[3-(trifluoromethyl)phenyl]sulfonyl]-tetrahydro-pyran-2-yl]-[1,3,4]oxadiazole] was run?
Its inhibition at 3 µM is 40 to 75%.

`C[S+]([O-])c1cnc(C2CC(C)(S(=O)(=O)c3cccc(C(F)(F)F)c3)CCO2)c(Cl)c1` (centres unmarked) [SC-233, 3-Chloro-5-(methylsulfinyl)-2-[4-methyl-4-[[3-(trifluoromethyl)phenyl]sulfonyl]-tetrahydro-pyran-2-yl]-pyridine] was tested. Which inhibition at 3 µM did it give?
The inhibition at 3 µM was 40 to 75%.

How did the inhibition at 3 µM turn out when `Cc1cc(S(C)(=O)=O)cnc1C1CC(C)(S(=O)(=O)c2cc(F)cc(C(F)F)c2)CCO1` (centres unmarked) [SC-442, 2-[4-[[3-(Difluoro-methyl)-5-fluoro-phenyl]sulfonyl]-4-methyl-tetrahydro-pyran-2-yl]-3-methyl-5-methylsulfonyl-pyridine] was run?
The inhibition at 3 µM was 40 to 75%.

With `CN(C)c1ncc(C2CC(C)(S(=O)(=O)c3cccc(C(F)(F)F)c3)CCO2)cn1` (centres unmarked) [SC-413, Dimethyl-[5-[4-methyl-4-[[3-(trifluoromethyl)phenyl]sulfonyl]-tetrahydro-pyran-2-yl]-pyrimidin-2-yl]-amine] as the compound, how does the inhibition at 3 µM read?
The inhibition at 3 µM was 75 to 95%.

For `CC1(S(=O)(=O)c2cccc(C(F)(F)F)c2)CCOC(c2cncc(C(F)(F)F)c2)C1` (single isomer, unassigned) [SC-115, 3-[4-Methyl-4-[[3-(trifluoromethyl)phenyl]sulfonyl]-tetrahydro-pyran-2-yl]-5-(trifluoromethyl)-pyridine], which inhibition at 3 µM is on record?
The inhibition at 3 µM was 75 to 95%.

For `COc1cc(F)c(C2CC(C)(S(=O)(=O)c3cccc(C(F)(F)F)c3)CCO2)cn1` (centres unmarked) [SC-257, 4-Fluoro-2-methoxy-5-[4-methyl-4-[[3-(trifluoromethyl)phenyl]sulfonyl]-tetrahydro-pyran-2-yl]-pyridine], which inhibition at 3 µM is on record?
The inhibition at 3 µM was 75 to 95%.

Which inhibition at 3 µM does the source give for `CC1(S(=O)(=O)c2cccc(C(F)(F)F)c2)CCOC(c2ncc(C3CC3)cc2Cl)C1` (centres unmarked) [SC-425, 3-Chloro-5-cyclopropyl-2-[4-methyl-4-[[3-(trifluoromethyl)phenyl]sulfonyl]-tetrahydro-pyran-2-yl]-pyridine] here?
The inhibition at 3 µM was greater than 95%.

`CC1(S(=O)(=O)c2cccc(C(F)(F)F)c2)CCOC(c2ncc(S(C)(=O)=O)cc2OC(F)F)C1` (centres unmarked) [SC-268, 3-(difluoromethoxy)-2-(4-methyl-4-((3-(trifluoromethyl)phenyl)sulfonyl)tetrahydro-2H-pyran-2-yl)-5-(methylsulfonyl)pyridine] was tested. Which inhibition at 3 µM did it give?
The inhibition at 3 µM was 75 to 95%.

With `CCC1(S(=O)(=O)c2cccc(C(F)(F)F)c2)CCOC(c2cnc(C3CC3)cn2)C1` (racemic) [SC-333, 2-Cyclopropyl-5-[4-ethyl-4-[[3-(trifluoromethyl)phenyl]sulfonyl]-tetrahydro-pyran-2-yl]-pyrazine] as the compound, how does the inhibition at 3 µM read?
Its inhibition at 3 µM is greater than 95%.

`CC1(S(=O)(=O)c2cccc(C(F)F)c2)CCOC(c2ncc(S(C)(=O)=O)cc2Cl)C1` (centres unmarked) [SC-265, 3-Chloro-2-[4-[[3-(difluoro-methyl)-phenyl]sulfonyl]-4-methyl-tetrahydro-pyran-2-yl]-5-methylsulfonyl-pyridine] was tested. Which inhibition at 3 µM did it give?
Its inhibition at 3 µM is 40 to 75%.

With `CC1(S(=O)(=O)c2cc(F)cc(C(F)F)c2)CCOC(c2ncc(S(C)(=O)=O)cc2Cl)C1` (centres unmarked) [SC-216, 3-Chloro-2-[4-[[3-(difluoro-methyl)-5-fluoro-phenyl]sulfonyl]-4-methyl-tetrahydro-pyran-2-yl]-5-methylsulfonyl-pyridine] as the compound, how does the inhibition at 3 µM read?
Its inhibition at 3 µM is 40 to 75%.

For `CC1(S(=O)(=O)c2cccc(C(F)(F)F)c2)CCOC(c2ccc(C3CC3)nc2)C1` (racemic) [SC-347, 2-Cyclopropyl-5-[4-methyl-4-[[3-(trifluoromethyl)phenyl]sulfonyl]-tetrahydro-pyran-2-yl]-pyridine], which inhibition at 3 µM is on record?
Its inhibition at 3 µM is greater than 95%.
